Values of other authors in US6887842B1, “Modulating a pharmacokinetic property of a drug by administering a bifunctional molecule containing the drug” (The Board of Trustees of the Leland Stanford Junior …, priority 1999, dated 2005).
Like-named read-outs stand apart in the source and are kept apart here.

Tests used:
[1] = in vivo
[2] = in vivo; remark: listed apart in the source
albumin = albumin (Homo sapiens, UniProt P02768)
[3] = in vivo; remark: listed apart in the source

Sequence of albumin (P02768 25-609, species assumed): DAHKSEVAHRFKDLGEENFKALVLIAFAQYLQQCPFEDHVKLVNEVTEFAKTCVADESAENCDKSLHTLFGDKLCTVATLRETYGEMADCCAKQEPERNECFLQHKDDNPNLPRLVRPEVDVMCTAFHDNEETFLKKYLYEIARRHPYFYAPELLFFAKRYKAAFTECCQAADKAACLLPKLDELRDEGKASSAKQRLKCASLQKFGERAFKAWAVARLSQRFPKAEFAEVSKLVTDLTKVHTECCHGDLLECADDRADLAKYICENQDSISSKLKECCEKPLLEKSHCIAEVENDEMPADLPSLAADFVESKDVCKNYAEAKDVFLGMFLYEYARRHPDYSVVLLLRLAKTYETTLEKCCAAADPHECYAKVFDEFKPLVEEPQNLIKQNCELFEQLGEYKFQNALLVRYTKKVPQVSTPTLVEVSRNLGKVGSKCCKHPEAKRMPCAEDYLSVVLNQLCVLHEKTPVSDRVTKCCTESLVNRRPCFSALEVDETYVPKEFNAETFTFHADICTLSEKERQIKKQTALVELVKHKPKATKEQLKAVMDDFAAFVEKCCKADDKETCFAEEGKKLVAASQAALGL

For Cc1ccc2nc(N)[nH]c(=O)c2c1Sc1ccncc1 [AG 337], the half-life [1] is given as 2 to 3 h.

For Cc1noc(NS(=O)(=O)c2ccc(N)cc2)c1C [Sulfisoxazole], the “distribution (extracellular space)” value [2] is given as “found almost exclusively in the extracellular space” and the “degree of binding to albumin” value (albumin) is given as “extensively bound to albumin”.

For CN(C)CCCN1c2ccccc2Sc2ccc(Cl)cc21 [chlorpromazine], the “degree of binding to albumin” value (albumin; plasma) is given as “extensively bound to albumin”.

For COc1ccc([C@@H]2Sc3ccccc3N(CCN(C)C)C(=O)[C@@H]2OC(C)=O)cc1 [diltiazem], the hepatic first-pass clearance [3] is given as “extensive hepatic first-pass clearance”.

For CC[C@H](C)C(=O)O[C@H]1C[C@@H](C)C=C2C=C[C@H](C)[C@H](CC[C@@H]3C[C@@H](O)CC(=O)O3)[C@H]21 [lovastatin], the hepatic first-pass clearance [3] is listed as “extensive hepatic first-pass clearance”.

For Sc1ncnc2nc[nH]c12 [mercaptopurine], the hepatic first-pass clearance [3] is given as “extensive hepatic first-pass clearance”.

For C=CCN1CC[C@]23c4c5ccc(O)c4O[C@H]2C(=O)CC[C@@]3(O)[C@H]1C5 [naloxone], the hepatic first-pass clearance [3] is listed as “extensive hepatic first-pass clearance”.

In the case of COc1ccc2cc([C@H](C)C(=O)O)ccc2c1 [naproxen], the “degree of binding to albumin” value (albumin; plasma) is given as “extensive binding to albumin”.

In the case of CC[C@H](C)C(=O)O[C@H]1C[C@H](O)C=C2C=C[C@H](C)[C@H](CC[C@@H](O)C[C@@H](O)CC(=O)O)[C@H]21 [pravastatin], the hepatic first-pass clearance [3] is given as “extensive hepatic first-pass clearance”.

In the case of CO[C@H]1C[C@@H]2CC[C@@H](C)[C@@](O)(O2)C(=O)C(=O)N2CCCC[C@H]2C(=O)O[C@H]([C@H](C)C[C@@H]2CC[C@@H](O)[C@H](OC)C2)CC(=O)[C@H](C)/C=C(\C)[C@@H](O)[C@@H](OC)C(=O)[C@H](C)C[C@H](C)/C=C/C=C/C=C/1C [rapamycin], the half-life [1] is listed as 60 h.

In the case of FK506, the half-life [1] is listed as 30 h.
